From the supplement of paper PMC11208160

Assay: recombinant barcode read abundance after kanamycin selection (control-corrected) (log10(CPM+1)); higher = more efficient recombination; sequences stand for … in AGTGCAGAGAAAATCGGCCAGTTTTCTCTGCCTGCAGTCCGCATGCCGT…AGATTTATGCAGCGGACTGCCTTTCTCCCAAAGTGATAAACCGGACAGTATCATGGACCGGTTTTCCCGGTAATCCGTATTTGCAAGGTTGGTTTCACT; site = the 11-nt target
Method in brief: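 Recombination efficiency in this pooled E. coli screen uses counts per million of barcodes at recombinant junctions, averaged and corrected against the control. The reported form is log10(CPM+1). Two replicates were plated on chloramphenicol/ampicillin LB agar as control and two on chloramphenicol/ampicillin/kanamycin with 0.1 mM IPTG.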
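Also: IS621 recombinase and bridge RNA in Escherichia coli cells.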

## GCAGAGTCTTGGGTTCTAACCTGTTGCCT (site GAAGAGTCTAG)
  recombinant barcode read abundance (log10): 0.201

## GCAGAGTCTTGGGTTCTAACCTGTTGCCT (site GCAGAGTCTAG)
  recombinant barcode read abundance (log10): 2.1

## GCAGAGTCTTGGGTTCTAACCTGTTGCCT (site GGAGAGTCTAG)
  recombinant barcode read abundance (log10): 0.0924

## GCAGAGTCTTGGGTTCTAACCTGTTGCCT (site GTAGAGTCTAG)
  recombinant barcode read abundance (log10): 1.06

## GCAGGGACTTGGGTTCTAACCTGTTGCCT (site GAAGGGACTAG)
  recombinant barcode read abundance (log10): 0.56

## GCAGGGACTTGGGTTCTAACCTGTTGCCT (site GCAGGGACTAG)
  recombinant barcode read abundance (log10): 1.9

## GCAGGGACTTGGGTTCTAACCTGTTGCCT (site GGAGGGACTAG)
  recombinant barcode read abundance (log10): 0.313

## GCAGGGACTTGGGTTCTAACCTGTTGCCT (site GTAGGGACTAG)
  recombinant barcode read abundance (log10): 1.02

## GCAGGTACTTGGGTTCTAACCTGTTGCCT (site ACAGGTACTAG)
  recombinant barcode read abundance (log10): 0.508

## GCAGGTACTTGGGTTCTAACCTGTTGCCT (site CCAGGTACTAG)
  recombinant barcode read abundance (log10): 0.401

## GCAGGTACTTGGGTTCTAACCTGTTGCCT (site GCAGGTACTAG)
  recombinant barcode read abundance (log10): 1.17

## GCAGGTACTTGGGTTCTAACCTGTTGCCT (site TCAGGTACTAG)
  recombinant barcode read abundance (log10): 0.466

## GCAGGTGCTTGGGTTCTAACCTGTTGCTT (site ATTTCGACTCC)
  recombinant barcode read abundance (log10): 0.0721

## GCAGGTGCTTGGGTTCTAACCTGTTGCTT (site GCAGGTGCTAA)
  recombinant barcode read abundance (log10): 1.75

## GCATACACTTGGGTTCTAACCTGTTGCCA (site GCATACACTTG)
  recombinant barcode read abundance (log10): 1.48

## GCATACACTTGGGTTCTAACCTGTTGCCA (site TGCAGGGCTCC)
  recombinant barcode read abundance (log10): 0.0903

## GCATCTACTTGGGTTCTAACCTGTTGCTA (site CATAACGCTAG)
  recombinant barcode read abundance (log10): 0.185

## GCATCTACTTGGGTTCTAACCTGTTGCTA (site GCATCTACTTA)
  recombinant barcode read abundance (log10): 0.0861

## GCCAAACCTTGGGTTCTAACCTGTTGCTA (site GCCAAACCTTA)
  recombinant barcode read abundance (log10): 0.0929

## GCCAAACCTTGGGTTCTAACCTGTTGCTA (site GTCAAGCCTTA)
  recombinant barcode read abundance (log10): 0.176

## GCCAGACCTTGGGTTCTAACCTGTTGCCT (site GCCAAACCTAG)
  recombinant barcode read abundance (log10): 0.0596

## GCCAGACCTTGGGTTCTAACCTGTTGCCT (site GCCACACCTAG)
  recombinant barcode read abundance (log10): 0.0708

## GCCAGACCTTGGGTTCTAACCTGTTGCCT (site GCCAGACCTAG)
  recombinant barcode read abundance (log10): 0.373

## GCCAGACCTTGGGTTCTAACCTGTTGCCT (site GCCATACCTAG)
  recombinant barcode read abundance (log10): 0.112

## GCCAGCTCTTGGGTTCTAACCTGTTGCTG (site CAATTTCCTAT)
  recombinant barcode read abundance (log10): 0.169

## GCCAGCTCTTGGGTTCTAACCTGTTGCTG (site GCCAGCTCTCA)
  recombinant barcode read abundance (log10): 0.581

## GCCATAACTTGGGTTCTAACCTGTTGCCT (site GCCATAACTAG)
  recombinant barcode read abundance (log10): 0.0347

## GCCATAACTTGGGTTCTAACCTGTTGCCT (site GCCATCACTAG)
  recombinant barcode read abundance (log10): 0.0218

## GCCATAACTTGGGTTCTAACCTGTTGCCT (site GCCATGACTAG)
  recombinant barcode read abundance (log10): 0.256

## GCCATAACTTGGGTTCTAACCTGTTGCCT (site GCCATTACTAG)
  recombinant barcode read abundance (log10): 0.191

## GCCCGAACTTGGGTTCTAACCTGTTGCCT (site GCACGAACTAG)
  recombinant barcode read abundance (log10): 0.141

## GCCCGAACTTGGGTTCTAACCTGTTGCCT (site GCCCGAACTAG)
  recombinant barcode read abundance (log10): 0.998

## GCCCGAACTTGGGTTCTAACCTGTTGCCT (site GCGCGAACTAG)
  recombinant barcode read abundance (log10): 0.0267

## GCCCGAACTTGGGTTCTAACCTGTTGCCT (site GCTCGAACTAG)
  recombinant barcode read abundance (log10): 0.101

## GCCCGATCTTGGGTTCTAACCTGTTGCCT (site GCCCAATCTAG)
  recombinant barcode read abundance (log10): 0.743

## GCCCGATCTTGGGTTCTAACCTGTTGCCT (site GCCCCATCTAG)
  recombinant barcode read abundance (log10): 0.179

## GCCCGATCTTGGGTTCTAACCTGTTGCCT (site GCCCGATCTAG)
  recombinant barcode read abundance (log10): 1.42

## GCCCGATCTTGGGTTCTAACCTGTTGCCT (site GCCCTATCTAG)
  recombinant barcode read abundance (log10): 0.0709

## GCCCGGGCTTGGGTTCTAACCTGTTGCGG (site GCCCGGGCTCC)
  recombinant barcode read abundance (log10): 2.39

## GCCCGGGCTTGGGTTCTAACCTGTTGCGG (site GGCCGGGCTCC)
  recombinant barcode read abundance (log10): 0.022

## GCCCTATCTTGGGTTCTAACCTGTTGCCT (site GCCCAATCTAG)
  recombinant barcode read abundance (log10): 0.0981

## GCCCTATCTTGGGTTCTAACCTGTTGCCT (site GCCCCATCTAG)
  recombinant barcode read abundance (log10): 0.107

## GCCCTATCTTGGGTTCTAACCTGTTGCCT (site GCCCGATCTAG)
  recombinant barcode read abundance (log10): 0.0182

## GCCCTATCTTGGGTTCTAACCTGTTGCCT (site GCCCTATCTAG)
  recombinant barcode read abundance (log10): 1.35

## GCCCTGCCTTGGGTTCTAACCTGTTGCGT (site GCCCTGCCTAC)
  recombinant barcode read abundance (log10): 2.62

## GCCCTGCCTTGGGTTCTAACCTGTTGCGT (site TACCTGCCTAC)
  recombinant barcode read abundance (log10): 0.133

## GCCGAAACTTGGGTTCTAACCTGTTGCCT (site GCCGAAACTAG)
  recombinant barcode read abundance (log10): 0.0181

## GCCGAAACTTGGGTTCTAACCTGTTGCCT (site GCCGACACTAG)
  recombinant barcode read abundance (log10): 0.0951

## GCCGAAACTTGGGTTCTAACCTGTTGCCT (site GCCGAGACTAG)
  recombinant barcode read abundance (log10): 0.052

## GCCGAAACTTGGGTTCTAACCTGTTGCCT (site GCCGATACTAG)
  recombinant barcode read abundance (log10): 0.311

## GCCGAGCCTTGGGTTCTAACCTGTTGCCA (site GCCGAGCCTTG)
  recombinant barcode read abundance (log10): 0.21

## GCCGAGCCTTGGGTTCTAACCTGTTGCCA (site TAGTGAACTGT)
  recombinant barcode read abundance (log10): 0.432

## GCCGAGGCTTGGGTTCTAACCTGTTGCTG (site GCCGAGGCTCA)
  recombinant barcode read abundance (log10): 0.439

## GCCGAGGCTTGGGTTCTAACCTGTTGCTG (site GTCTAGGCTCA)
  recombinant barcode read abundance (log10): 0.326

## GCCGAGTCTTGGGTTCTAACCTGTTGCAC (site GCCGAGTCTAG)
  recombinant barcode read abundance (log10): 0.288

## GCCGAGTCTTGGGTTCTAACCTGTTGCAC (site GCCGAGTCTGT)
  recombinant barcode read abundance (log10): 1.25

## GCCGAGTCTTGGGTTCTAACCTGTTGCTA (site GCCGAGTCTAA)
  recombinant barcode read abundance (log10): 0.0891

## GCCGAGTCTTGGGTTCTAACCTGTTGCTA (site GCCGAGTCTCA)
  recombinant barcode read abundance (log10): 0.357

## GCCGAGTCTTGGGTTCTAACCTGTTGCTA (site GCCGAGTCTGA)
  recombinant barcode read abundance (log10): 0.0866

## GCCGAGTCTTGGGTTCTAACCTGTTGCTA (site GCCGAGTCTTA)
  recombinant barcode read abundance (log10): 0.411

## GCCGATACTTGGGTTCTAACCTGTTGCCT (site GCCGAAACTAG)
  recombinant barcode read abundance (log10): 0

## GCCGATACTTGGGTTCTAACCTGTTGCCT (site GCCGACACTAG)
  recombinant barcode read abundance (log10): 0.171

## GCCGATACTTGGGTTCTAACCTGTTGCCT (site GCCGAGACTAG)
  recombinant barcode read abundance (log10): 0.197

## GCCGATACTTGGGTTCTAACCTGTTGCCT (site GCCGATACTAG)
  recombinant barcode read abundance (log10): 0.113

## GCCGGGCCTTGGGTTCTAACCTGTTGCCT (site GCCGGGCCTAG)
  recombinant barcode read abundance (log10): 0.265

## GCCGGGCCTTGGGTTCTAACCTGTTGCCT (site GCTGCGCCTAG)
  recombinant barcode read abundance (log10): 0.0616
